Experimental data published in PMC3898987 (Bioorganic & Medicinal Chemistry, 2013).
Numbering of substitutions follows the chain as printed. Where “and” joins values, the source holds several entries; their conditions need not be identical. Equal values may be shown once.

Experiments:
Experiment in all cases: FlexStation membrane potential dye functional assay, HEK293 cells
Type in all cases: cell-based
Design in all cases: expressed in transfected cells; host or cells: HEK293
WT 5-HT3A receptor = molecular target: T1, WT 5-HT3A receptor (Homo sapiens, UniProt P46098)
T1 sequence (P46098 24-478): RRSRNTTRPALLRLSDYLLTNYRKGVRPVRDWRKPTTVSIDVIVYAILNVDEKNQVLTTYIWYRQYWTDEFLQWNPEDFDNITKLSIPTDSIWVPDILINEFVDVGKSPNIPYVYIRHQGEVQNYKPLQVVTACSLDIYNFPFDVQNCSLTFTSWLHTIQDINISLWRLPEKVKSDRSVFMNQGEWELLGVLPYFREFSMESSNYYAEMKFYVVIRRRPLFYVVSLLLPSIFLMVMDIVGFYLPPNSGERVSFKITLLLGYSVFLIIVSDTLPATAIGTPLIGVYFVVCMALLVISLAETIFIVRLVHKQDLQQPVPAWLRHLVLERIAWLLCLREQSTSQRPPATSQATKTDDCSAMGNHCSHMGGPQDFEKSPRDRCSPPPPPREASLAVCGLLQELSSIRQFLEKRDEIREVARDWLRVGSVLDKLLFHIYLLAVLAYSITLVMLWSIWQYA
Method: (§1) Human embryonic kidney (HEK) 293 cells were cultured on 90 mm tissue culture plates at 37 °C and 7% CO2 in a humidified atmosphere. They were grown in DMEM:F12 (Dulbecco’s Modified Eagle’s Medium/Nutrient Mix F12 (1:1)) with GlutaMAX I™ containing 10% fetal calf serum and passaged when confluent. […] For FlexStation assays, transfected cells were plated on 96-well plates and incubated 1–2 days before assay.
(§2) Fluorometric studies were undertaken using a FlexStation® (Molecular Devices, Sunnyvale, CA, USA) as previously described.[11]
(§3) Fluorescence was measured every 2 s for 200 s. […] Concentration–response and inhibition curves were obtained for each mutant, and the fluorescence values were normalized to the maximal response.

5-HT3A receptor Y73S = molecular target: T2, 5-HT3A receptor Y73S (Homo sapiens, UniProt P46098, Y68S); settings: 5-HT3A Y73S
T2 sequence (P46098 24-478 Y68S): T1 sequence (P46098 24-478) with Y45S
Method: as §1, §2, §3

5-HT3A receptor S163A = molecular target: T3, 5-HT3A receptor S163A (Homo sapiens, UniProt P46098, S158A); settings: 5-HT3A S163A
T3 sequence (P46098 24-478 S158A): T1 sequence (P46098 24-478) with S135A
Method: as §1, §2, §3

5-HT3A receptor D165K = molecular target: T4, 5-HT3A receptor D165K (Homo sapiens, UniProt P46098, D160K); settings: 5-HT3A D165K
T4 sequence (P46098 24-478 D160K): T1 sequence (P46098 24-478) with D137K
Method: as §1, §2, §3

WT 5-HT3AB receptor = molecular target: T5, WT 5-HT3AB receptor (Homo sapiens, UniProt O95264+P46098)
T5 sequence (P46098 24-478): T1 sequence (P46098 24-478)
T5 sequence (O95264 22-441): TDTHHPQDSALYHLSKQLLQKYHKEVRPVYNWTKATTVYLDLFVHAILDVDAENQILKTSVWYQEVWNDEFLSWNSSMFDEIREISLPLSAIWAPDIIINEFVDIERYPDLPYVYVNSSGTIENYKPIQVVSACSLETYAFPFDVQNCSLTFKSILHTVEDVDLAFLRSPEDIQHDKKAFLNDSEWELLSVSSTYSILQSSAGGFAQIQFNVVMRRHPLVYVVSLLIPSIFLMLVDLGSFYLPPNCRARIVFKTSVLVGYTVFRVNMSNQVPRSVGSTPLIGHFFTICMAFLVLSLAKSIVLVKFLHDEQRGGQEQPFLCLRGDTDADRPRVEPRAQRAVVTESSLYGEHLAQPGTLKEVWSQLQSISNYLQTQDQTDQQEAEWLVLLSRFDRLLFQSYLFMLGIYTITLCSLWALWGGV
Method: as §1, §2, §3

[1] = inhibition of 5-HT (EC50 concentration) response, 45 min preincubation

In the case of `NCCc1c[nH]c2ccc(O)cc12` [5-HT, serotonin], the “Hill Coefficient” value (WT 5-HT3A receptor; 5-HT concentration-response) is reported as 2.3 and 2.3 ± 0.2, the “Hill Coefficient” value (5-HT3A receptor Y73S; 5-HT concentration-response) is reported as 2.0 ± 0.3 and the “Hill Coefficient” value (5-HT3A receptor S163A; 5-HT concentration-response) is reported as 3.8 ± 0.4. For the same compound, the “Hill Coefficient” value (5-HT3A receptor D165K; 5-HT concentration-response) was 3.0 ± 0.3 and the “Hill Coefficient” value (WT 5-HT3AB receptor; 5-HT concentration-response) was 1.3 and 1.3 ± 0.2.
Compound `O=C1c2cccc3c2[C@H](CCC3)CN1[C@@H]1CN2CCC1CC2` [Palonosetron] has an IC50 (WT 5-HT3A receptor; [1]) of 0.83 ± 0.49 nM, an IC50 (5-HT3A receptor Y73S; [1]) of 3.64 ± 1.1 nM and an IC50 (5-HT3A receptor S163A; [1]) of 1.57 ± 0.12 nM. For the same compound, the IC50 (5-HT3A receptor D165K; [1]) was 1.3 ± 0.43 nM and the IC50 (WT 5-HT3AB receptor; [1]) was 0.88 ± 0.15 nM.
